Earlier results as cited in patent publication US6514490B2, “Compositions containing an antifungal and a cationic agent” (Janssen Pharmaceutica N.V., priority 1997, dated 2003).

Details: prior art medicated shampoo, anti-dandruff treatment

SMILES	number of patients not responding to particular medicated shampoo
CC(=O)N1CCN(c2ccc(OCC3COC(Cn4ccnc4)(c4ccc(Cl)cc4Cl)O3)cc2)CC1 (centres unmarked) [ketoconazole]	up to 30%
S=[Se]=S [selenium sulfide]	up to 40%
